Changes are numbered by the printed parent chain.
What was measured:
[1] = PK studies, brain and plasma levels by LC-MS/MS; format: in vivo, Mice; settings: 50 mg/kg SC
Method: PK studies. […] Plasma and brain samples were rapidly frozen on dry ice.
Drug accumulation in the brain was examined following SC injection (FIG. 4C; 50 mg/kg).

KCC2-S940A = molecular target: T1, KCC2-S940A (Homo sapiens, UniProt Q9H2X9, S963A); experiment: Tl+ flux assay, HEK-293 cells expressing KCC2-S940A; format: cell-based
T1 construct: expressed in transfected cells; host or cells: HEK-293
T1 sequence (Q9H2X9 1-1116 isoform Q9H2X9-2 S940A): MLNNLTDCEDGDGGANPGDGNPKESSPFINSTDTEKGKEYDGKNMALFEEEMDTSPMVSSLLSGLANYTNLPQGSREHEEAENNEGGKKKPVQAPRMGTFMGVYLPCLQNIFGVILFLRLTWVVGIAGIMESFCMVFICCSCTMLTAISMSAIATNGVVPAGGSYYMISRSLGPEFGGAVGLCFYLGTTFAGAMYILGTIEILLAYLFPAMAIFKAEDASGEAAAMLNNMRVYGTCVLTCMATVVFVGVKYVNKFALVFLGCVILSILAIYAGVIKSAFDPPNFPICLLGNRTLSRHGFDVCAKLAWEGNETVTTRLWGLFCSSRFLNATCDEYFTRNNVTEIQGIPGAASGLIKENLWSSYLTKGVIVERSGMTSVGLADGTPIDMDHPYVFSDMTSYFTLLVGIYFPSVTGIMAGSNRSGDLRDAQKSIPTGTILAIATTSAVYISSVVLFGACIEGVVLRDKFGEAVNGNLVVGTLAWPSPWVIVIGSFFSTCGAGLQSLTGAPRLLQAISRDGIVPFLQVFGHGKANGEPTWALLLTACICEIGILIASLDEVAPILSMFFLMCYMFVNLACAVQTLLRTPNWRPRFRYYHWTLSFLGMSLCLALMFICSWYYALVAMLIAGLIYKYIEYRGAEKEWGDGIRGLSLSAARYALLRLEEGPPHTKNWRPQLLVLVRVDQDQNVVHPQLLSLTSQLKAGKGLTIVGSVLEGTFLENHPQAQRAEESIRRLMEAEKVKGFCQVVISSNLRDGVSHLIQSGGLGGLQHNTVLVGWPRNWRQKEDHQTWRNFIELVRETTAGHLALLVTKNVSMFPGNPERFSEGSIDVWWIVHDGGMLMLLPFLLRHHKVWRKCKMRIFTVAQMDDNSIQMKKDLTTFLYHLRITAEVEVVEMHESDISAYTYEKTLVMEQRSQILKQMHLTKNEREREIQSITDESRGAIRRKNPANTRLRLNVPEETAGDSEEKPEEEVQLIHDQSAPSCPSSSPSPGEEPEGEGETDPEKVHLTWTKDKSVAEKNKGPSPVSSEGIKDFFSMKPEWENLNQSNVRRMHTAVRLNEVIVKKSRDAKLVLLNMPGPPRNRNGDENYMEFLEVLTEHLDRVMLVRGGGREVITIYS
Method: FLIPR TI Flux assay. HEK-293 cells were washed with HBSS, and then incubated with loading buffer containing TI sensitive fluorescent dye (https://www.moleculardevices.com), 20 μM bumetanide 20 μM ouabain and 2.5 mM probenecid for 1 h at room temperature (RT) under control conditions or with drugs in the dark using a FlexStation 3 microplate reader (Molecular Devices) and imaged […] for 30 min. Stimulus buffer was added containing 5 mM K^+/0.5 mM Tl^+ and cells were imaged every 1.5 over a 190 second time course The initial rate Tl^+ uptake (Relative Fluorescence Units (RFU) per second) was determined following addition of the stimulus buffer as outlined previously (Conway et al., 2017, supra) (Lee et al., 2022, supra).
Several studies have shown that the activity and plasma membrane accumulation of KCC2 is potentiated via phosphorylation of S940, a process mediated by the activity of protein kinase C and protein phosphatase 1 (Lee et al., 2011, supra, Lee et al., J Biol Chem 282, 29777-29784 (2007); Moore et al., Proc. Natl. Acad. Sci. U.S.A 115, 10166-10171 (2018); Moore et al., Trends Neurosci. 40, 555-571 (2017); Silayeva et al., Proc. Natl. Acad. Sci. U.S.A 112, 3523-3528 (2015)). […] Compared to KCC2, effects on KCC3, KCC4, and NKCC1 were only seen at concentrations more than 35-fold that of KCC2 (>100 μM) (FIG. 1G).

KCC2 = molecular target: T2, KCC2 (Homo sapiens, UniProt Q9H2X9); experiment: cellular thermal shift assay (CETSA), HEK-293 cells expressing KCC2; format: binding
T2 construct: expressed in transfected cells; host or cells: HEK-293 (ATCC CRL-1573), transient transfection
T2 sequence (Q9H2X9 1-1116 isoform Q9H2X9-2): T1 sequence (Q9H2X9 1-1116 isoform Q9H2X9-2 S940A) with A940S
Method: Determining if compounds in SSA directly interact with KCC2. This was tested using a cellular thermal shift assay (CETSA), which measures the ability of a drug to modify the thermal stability of its target in whole cells (Kawatkar et al., ACS Chem. Biol. 14, 1913-1920 (2019); Martinez et al., Sci Rep 8, 9472 (2018)).
2×10^6 transfected HEK-293 cells were incubated with 30 μM drug or vehicle for 90 min at 37° C. and then heated from 37-58° C. for 5 min. Cells were rapidly chilled to 25° C. and NP40 was added to a final concentration […] to snap freezing in liquid nitrogen. Following 5 freeze/thaw cycles lysates were centrifuged at 12,000×g to remove denatured proteins and associated cell debris.
Aliquots of HEK-293 cells expressing KCC2 were exposed to 30 μM SSA, heated from 37-55° C. The remaining level of soluble native KCC2 at each temperature was measured by immunoblotting and normalized to the level seen at 37° C. which was given a value of 1. […] This panel included protein kinase C isoforms, OSR1, SPAK (STK39) and with-no-lysine kinases (WNK), all of which phosphorylate KCC2 on multiple residues to indirectly modify its activity (Kahle et al., 2013, supra; Smalley et al., 2020, supra).

[2] = system: panel of 144 protein kinases; experiment: panel of 144 protein kinases (SelectScreen; Thermofisher); format: biochemical; settings: 144 protein kinases incl. PKC isoforms, OSR1, SPAK, WNK
[3] = system: neuronal cell death in the hippocampus; experiment: neuronal cell death in the hippocampus, mice treated with Compound A and diazepam; format: in vivo; settings: Compound A and diazepam vs diazepam alone
[4] = system: acute brain slices exposed to 0-Mg; experiment: late recurrent discharges in acute brain slices exposed to 0-Mg
[5] = parameters: species or system Mice; settings: in vivo

SMILES: C[C@@H]1CN(c2nc3c(c(Nc4ccc(C5CCCCC5)cc4)n2)COC3)CCO1 [Compound A, (R)—N-(4-cyclohexylphenyl)-2-(2-methylmorpholino)-5,7-dihydrofuro[3,4-d]pyrimidin-4-amine]
- accumulation in the brain at 30 min [1]: detected
- brain level 8 h later [1]: maintained
- time of maximal concentration in the brain [1]: 4 h
- activity of KCC2-S940A construct (KCC2-S940A): increased the activity
- direct binding to KCC2 (KCC2): capable of directly binding to KCC2
- activity of kinase panel [2]: did not modify the activity
- neuronal cell death in the hippocampus [3]: significantly reduced
- development of late recurrent discharges (LRDs) [4]: reduced
- gross effects on mouse behavior [5]: no gross effects on mouse behavior

— US20260191875A1, “FUSED AMINO PYRIMIDINE COMPOUNDS FOR TREATMENT OF ADDICTION AND INSOMNIA” (Ovid Therapeutics Inc., priority 2024, published 2026)
